According to patent US20070066672A1, “Benzimidazole derivatives and use thereof as peptide deformylase inhibitors” (Arpida A/S, priority 2003, published 2007):

Columns and labels:
[1] = target: T1, Peptide Deformylase (PDF) (Escherichia coli, UniProt P0A6K3); assay: Bacterial peptide deformylase (PDF) assay, colorimetric cell free, enzyme from E. coli; format: biochemical
T1 construct: made in house
Text: (§1) To find inhibitors of Peptide Deformylase (PDF), a colorimetric cell free assay for measuring the enzymatic activity of PDF has been adapted to the microtiter plate format (96 wells). The assay comprises three components, purified PDF, f-Met-Ala as substrate and TNBS as the detecting agent of primary amino groups. The resulting TNP_NH-Met-Ala sulfite complex can be detected at 420 nm. PDF enzymes, containing Fe^2+ as the native metal, are purified and are stabilized by the addition of tris(2-carboxyethyl)phosphine (TCEP).
(§2) The IC50 value of a compound of the invention as a bacterial PDF inhibitor was determined using the following assay.
(§3) Assay buffer 0.1 M MOPS pH was adjusted to 7.2 with NaOH, containing 0.25 M NaCl, 100 μg/mL catalase and 1 mg/mL BSA.
(§4) E. coli enzyme (2.5 mg/ml) 10 μl+290 μl Assay buffer, 1 μl per ml enzyme mix. S. aureus (15 mg/ml) 10 μl+990 μl Assay buffer, 0.3 μl per ml enzyme mix.
(§5) Substrate mix: 10 mM f-Met-Ala was made up from 200 mM f-Met-Ala in methanol with assay buffer.
(§6) TNBS solution: Freshly dilute 1 M TNBS stock solution diluted 1:10 with water.
(§7) Buffer C: 0.5 M borate buffer adjusted to pH 9.5 with NaOH.
(§8) Buffer D: 0.2 ml of freshly prepared 0.5 M Na2SO3 was mixed with 9.8 mL of 0.5M NaH2PO4.
(§9) Inhibitor solution: 2 mM Sodium 4-(hydroxymercurio)benzoate in assay buffer.
(§10) Compound mix: Compound of formula I dissolved in DMSO in a 10 mg/mL stock solution. Further dilutions were made in DMSO in the concentration range between 0.05 to 100 mM.
(§11) The assay was performed in a 96 Microtiter plate containing test compound. To each well containing test compound mix was added 75 microliter of enzyme mix from E. coli followed by the addition of 25 microliter of substrate mix. The resulting mix was incubated for 30 minutes at room temperature with shaking. TNBS solution (50 microliter/well) was added and the resulting mixture was incubated for 15 minutes under shaking. Buffer C was then added (20 microliter/well). After incubating at room temperature for 15 minutes under shaking, buffer D was added (50 microliter/well). The optical […] was then measured at 420 nm, thereby determining the IC50 value.

[2] = target: T2, Peptide Deformylase (PDF) (Staphylococcus aureus, UniProt P68826); assay: Bacterial peptide deformylase (PDF) assay, colorimetric cell free, enzyme from S. aureus; format: biochemical; conditions: f-Met-Ala substrate, TNBS detection at 420 nm
T2 construct: made in house
T2 sequence (P68826 1-183): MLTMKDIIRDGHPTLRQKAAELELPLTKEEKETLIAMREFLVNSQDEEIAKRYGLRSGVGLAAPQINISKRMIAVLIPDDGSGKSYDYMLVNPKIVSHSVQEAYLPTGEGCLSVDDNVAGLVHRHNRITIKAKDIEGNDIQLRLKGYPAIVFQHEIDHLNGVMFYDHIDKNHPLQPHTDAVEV
Text: as §1, §2, §3, §4, §5, §6, §7, §8, §9, §10, §11
The assay was repeated using enzyme mix from S. aureus.

T1 sequence (P0A6K3 whole entry): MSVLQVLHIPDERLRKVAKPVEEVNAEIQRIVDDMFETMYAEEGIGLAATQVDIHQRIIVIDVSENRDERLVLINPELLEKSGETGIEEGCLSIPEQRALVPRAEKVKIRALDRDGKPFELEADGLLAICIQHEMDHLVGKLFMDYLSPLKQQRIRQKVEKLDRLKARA

COC(=O)CNC(=O)c1ccc2c(c1)nc(C(CCCCN)NC(=O)CCS)n2Cc1ccccc1 (stereo not drawn) [Example 49, ({2-[5-Amino-1-(3-mercapto-propionylamino)-pentyl]-1-benzyl-1H-benzoimidazole-5-carbonyl}-amino)-acetic acid methyl ester]
IC50 [1]: 5.2 µM
IC50 [2]: 2.4 µM

COC(=O)CNC(=O)c1ccc2c(c1)nc(C(Cc1ccccc1)NC(=O)CCS)n2CCN (stereo not drawn) [Example 50, ({1-(2-Amino-ethyl)-2-[1-(3-mercapto-propionylamino)-2-phenyl-ethyl]-1H-benzoimidazole-5-carbonyl}-amino)-acetic acid methyl ester]
IC50 [1]: 7.2 µM
IC50 [2]: 3.8 µM

COC(=O)CNC(=O)c1ccc2c(c1)nc(C(Cc1ccccc1)NC(=O)CCC(=O)NO)n2CCN (stereo not drawn) [Example 56, ({1-(2-Amino-ethyl)-2-[1-(3-hydroxycarbamoyl-propionylamino)-2-phenyl-ethyl]-1H-benzoimidazole-5-carbonyl}-amino)-acetic acid methyl ester]
IC50 [1]: 2 µM
IC50 [2]: 1.6 µM
